Test results published in patent US8258215B2, “Mixed alkyl-alkylaryl-phenyl phosphite polymer additive” (Dover Chemical Corporation, priority 2010, dated 2012).
Read-outs that look alike come from different tables or passages of the source.

Assays:
estrogenic activity = assay: Estrogenic activity by in-vivo testing
[1] = LLDPE; for High load Melt Flow Stability, 1st pass / High load Melt Flow Stability, 3rd pass / High load Melt Flow Stability, 5th pass: 190° C. (21.6 Kg), 900 ppm phosphite + 500 ppm Dovernox 76; for maintaining melt flow stability, in words: compared with TNPP (Table III)
Protocol: (§1) The polyolefin powder (polyethylene, polypropylene or high density polyethylene) is dry blended with the stabilizer formulation using a Waring blender. […] The masterbatch is then added to a preheated co-rotating twin screw extruder where the plastic is homogeneously mixed. Extrusion is typically performed at 260° C. for polyethylene (LLDPE) and polypropylene (PP) and at 250° C. for high density polyethylene (HDPE). The extruded plastic is cooled into a cold water bath, completely dried, and pelletized. The collected polymer pellets are the result of the first pass extrusion and are the starting material for all subsequent test protocols. The isolated pellets are added to the extruder repeatedly to generate the third and fifth pass material.
(§2) The melt flow rate was performed using the ASTM 1238-90b test method measured at 21.6 Kg/190° C. for LLDPE and HDPE compositions and at 2.16 Kg/230° C. for the PP compositions. The melt flow rate was complete on a Tinius Olsen extrusion plastometer.

[2] = LLDPE; 900 ppm phosphite + 500 ppm Dovernox 76
Protocol: as §1
(§3) Color analysis was performed on compression molded films or plaques with a Hunter Lab Ulstrascan XE machine. Observations were made with a D65 illuminant and 10° observer. Yellowness Index measurements were made in accord with ASTM D1925-70.

[3] = PP; 230° C. (21.6 Kg); phosphite 900 ppm
Protocol: as §1, §2

[4] = PP; phosphite 900 ppm
Protocol: as §1, §3

[5] = HDPE; 190° C. (21.6 Kg); phosphite 900 ppm
Protocol: as §1, §2

[6] = HDPE; 230° C.; phosphite 900 ppm
Protocol: as §1, §3

Compound | estrogenic activity compared with nonylphenol (estrogenic activity) | High load Melt Flow Stability, 1st pass [1] | High load Melt Flow Stability, 3rd pass [1] | High load Melt Flow Stability, 5th pass [1] | YI (Yellowness Index) Color Stability, 1st pass [2] | YI (Yellowness Index) Color Stability, 3rd pass [2] | YI (Yellowness Index) Color Stability, 5th pass [2] | maintaining melt flow stability, in words [1] | High load Melt Flow Stability, 1st pass [3] | High load Melt Flow Stability, 3rd pass [3] | High load Melt Flow Stability, 5th pass [3] | Color Stability (YI), 1st pass [4] | Color Stability (YI), 3rd pass [4] | High load Melt Flow Stability, 1st pass [5] | High load Melt Flow Stability, 3rd pass [5] | High load Melt Flow Stability, 5th pass [5] | Color Stability (YI), 1st pass [6] | Color Stability (YI), 3rd pass [6] | Color Stability (YI), 5th pass [6]
CC(C)(c1ccccc1)c1ccc(O)cc1 [para-cumylphenol] | does not show comparable estrogenic activity to nonylphenol |  |  |  |  |  |  |  |  |  |  |  |  |  |  |  |  |  | 
Mixed C10 alkyl, p-cumylphenyl phosphite [Example 3] |  | 17.1 | 13.4 | 12.2 | −4.2 | −2.9 | −1.1 |  |  |  |  |  |  |  |  |  |  |  | 
Mixed C12-14 Alkyl, 2,4-dicumylphenyl Phosphite [Example 10] |  | 18.3 | 15.5 | 13.5 | −6.1 | −3.8 | −2.4 |  |  |  |  |  |  |  |  |  |  |  | 
Mixed C12-14 alkyl, p-cumylphenyl phosphite [Example 2] |  | 17.7 | 15.7 | 14.0 | −5.4 | −3.5 | −1.5 | performed exceptionally well | 24.2 | 33.7 | 37.9 | 7.2 | 10.4 | 22.7 | 22.2 | 17.2 | 1.2 | 5.9 | 10.2
Mixed C12-18 alkyl, p-cumylphenyl phosphite [Example 7] |  | 18.5 | 16.1 | 14.6 | −5.5 | −3.6 | −1.5 | performed exceptionally well | 24.2 | 34.2 | 44.4 | 7.0 | 10.0 | 23.6 | 22.2 | 17.1 | −0.6 | 1.4 | 6.4
Mixed C16-18 alkyl, p-cumylphenyl phosphite [Example 6] |  | 18.7 | 15.7 | 13.6 | −3.8 | −1.1 | 1.5 |  |  |  |  |  |  |  |  |  |  |  | 
Mixed C18 alkenyl, p-cumylphenyl phosphite [Example 4] |  | 18.1 | 14.8 | 13.4 | −5.8 | −3.8 | −1.4 |  |  |  |  |  |  |  |  |  |  |  | 
tris(nonylphenyl)phosphite [TNPP, reference compound] |  | 18.1 | 16.1 | 14.4 | −3.7 | −1.7 | 0.4 |  | 21.4 | 30.0 | 37.0 | 14.8 | 15.1 | 22.7 | 22.5 | 18.5 | −0.4 | 4.9 | 9.3
